Measured values reported in the supplement of paper PMC7394473.

Assays:
Details in all cases: 72 h
U2OS [1] = assay: fractional viability (live cells / total cells); higher = less cell death
Protocol: (§1)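 U2OS::Nuc-mKate2 cells seeded in 96-well plates and treated with eight- to ten-point half-log or log dilutions of drug in the presence of 50 nM SYTOX Green. Live (mKate2+) and dead (SYTOX+) cells were counted by IncuCyte STACK live-cell microscopy at 72 h; biological triplicates. GR is the normalised growth-rate inhibition value (Hafner 2016; 1 = untreated growth, <0 = population shrinking). FV is live/(live+dead) cells, not normalised.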

U2OS [2] = assay: normalized growth rate inhibition value (GR) relative to untreated cells (GR value (dimensionless, 1 = untreated growth)); higher = less growth inhibition
Protocol: as §1

U2OS [3] = assay: GR50 (concentration giving GR = 0.5)
Protocol: (§2)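 U2OS cells treated with full dose titrations of drug; live and dead cells counted by STACK microscopy (mKate2 nuclei, SYTOX Green) at 72 h, biological triplicates. GR and FV dose responses were fitted with 4-parameter logistic models (GR lower bound -1). GRADE (0-100) is the rescaled angle of a linear fit of FV versus GR at doses with GR >= 0, giving the percentage of the response due to cell death.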

U2OS [4] = assay: drug GRADE (percent of response due to cell death) (% (0-100)); higher = more death-driven response
Protocol: as §2

U2OS [5] = assay: GRmin (fitted minimal GR value at highest effect) (GR value (dimensionless)); higher = less efficacious
Protocol: as §2

Cc1nn(C)c(COc2ccc(N3CCN(S(=O)(=O)N(C)C)CC3)cc2)c1-c1cccc2c(CCCOc3cccc4ccccc34)c(C(=O)O)n(CCN3CCOCC3)c12
Details | fractional viability, U2OS [1] | normalized growth rate inhibition value, U2OS [2]
0.00100578 µM | 0.991 | 0.982
0.00317827 µM | 0.989 | 0.925
0.0100433 µM | 0.987 | 0.967
0.0317369 µM | 0.991 | 0.917
0.100289 µM | 0.99 | 0.934
0.316912 µM | 0.987 | 0.942
1.00144 µM | 0.978 | 0.899
3.16456 µM | 0.96 | 0.919
10 µM | 0.852 | 0.718

CS(=O)(=O)N1CCN(Cc2cc3nc(-c4cccc5[nH]ncc45)nc(N4CCOCC4)c3s2)CC1 [Pictilisib]
Details | GR50 [µM] | GRmin | drug GRADE
U2OS [3] | 1.48 | – | –
U2OS [4] | – | – | 30.9
U2OS [5] | – | 0.374 | –

Details | fractional viability, U2OS [1] | normalized growth rate inhibition value, U2OS [2]
0.00100578 µM | 0.988 | 1.02
0.00317827 µM | 0.989 | 0.948
0.0100433 µM | 0.985 | 0.953
0.0317369 µM | 0.985 | 0.837
0.100289 µM | 0.975 | 0.872
0.316912 µM | 0.96 | 0.842
1.00144 µM | 0.936 | 0.628
3.16456 µM | 0.844 | 0.306
10 µM | 0.854 | 0.455

C=CCc1ccc(O)c(-c2ccc(O)c(CC=C)c2)c1 [Honokiol]
Details | fractional viability, U2OS [1] | normalized growth rate inhibition value, U2OS [2]
0.01 µM | 0.978 | 1.04
0.0316 µM | 0.974 | 1.07
0.1 µM | 0.978 | 0.96
0.316 µM | 0.983 | 1.03
1 µM | 0.978 | 0.897
3.16 µM | 0.979 | 0.981
10 µM | 0.981 | 0.95
31.6 µM | 0.969 | 0.774

Cc1nc(Nc2ncc(C(=O)Nc3c(C)cccc3Cl)s2)cc(N2CCN(CCO)CC2)n1 [Dasatinib]
Details | GR50 [µM] | drug GRADE
U2OS [3] | 1.68 | –
U2OS [4] | – | 26.7

Details | fractional viability, U2OS [1] | normalized growth rate inhibition value, U2OS [2]
0.00100578 µM | 0.99 | 0.806
0.00317827 µM | 0.988 | 0.867
0.0100433 µM | 0.979 | 0.998
0.0317369 µM | 0.974 | 0.833
0.100289 µM | 0.976 | 0.762
0.316912 µM | 0.97 | 0.799
1.00144 µM | 0.963 | 0.605
3.16456 µM | 0.913 | 0.35
10 µM | 0.635 | -0.105

C=CCNc1ncnc2ccc(Br)cc12 [SMER28]
Details | fractional viability, U2OS [1] | normalized growth rate inhibition value, U2OS [2]
0.01 µM | 0.977 | 1.03
0.0316 µM | 0.977 | 1.09
0.1 µM | 0.98 | 0.962
0.316 µM | 0.979 | 1.02
1 µM | 0.982 | 1.02
3.16 µM | 0.975 | 0.992
10 µM | 0.973 | 0.909
31.6 µM | 0.977 | 0.866

Details | GRmin
U2OS [5] | 0.864

COc1cc2c(Oc3ccc4[nH]c(C)cc4c3F)ncnc2cc1OCCCN1CCCC1 [Cediranib]
Details | GR50 [µM] | drug GRADE
U2OS [3] | 7.19 | –
U2OS [4] | – | 55.1

Details | fractional viability, U2OS [1] | normalized growth rate inhibition value, U2OS [2]
0.00100578 µM | 0.987 | 0.951
0.00317827 µM | 0.986 | 1.04
0.0100433 µM | 0.986 | 1.11
0.0317369 µM | 0.988 | 1.04
0.100289 µM | 0.986 | 0.987
0.316912 µM | 0.987 | 1.07
1.00144 µM | 0.974 | 0.861
3.16456 µM | 0.966 | 0.837
10 µM | 0.686 | 0.308

CNC(=O)c1ccccc1Sc1ccc2c(/C=C/c3ccccn3)n[nH]c2c1 [Axitinib]
Details | fractional viability, U2OS [1] | normalized growth rate inhibition value, U2OS [2]
0.01 µM | 0.977 | 0.956
0.0316 µM | 0.978 | 0.956
0.1 µM | 0.97 | 0.887
0.316 µM | 0.972 | 0.994
1 µM | 0.956 | 0.822
3.16 µM | 0.788 | 0.223
10 µM | 0.949 | 0.733
31.6 µM | 0.91 | 0.643

Details | GRmin | drug GRADE
U2OS [4] | – | 32.1
U2OS [5] | 0.534 | –

CN(C)/N=N/c1[nH]cnc1C(N)=O [Dacarbazine]
Details | fractional viability, U2OS [1] | normalized growth rate inhibition value, U2OS [2]
0.01 µM | 0.975 | 1.08
0.0316 µM | 0.984 | 1.01
0.1 µM | 0.974 | 0.899
0.316 µM | 0.978 | 0.939
1 µM | 0.975 | 0.934
3.16 µM | 0.964 | 0.821
10 µM | 0.942 | 0.837
31.6 µM | 0.926 | 0.769

Details | GRmin
U2OS [5] | 0.749

O=C(O)CCNc1cc(N2CCc3ccccc3CC2)nc(-c2ccccn2)n1 [GSKJ1]
Details | fractional viability, U2OS [1] | normalized growth rate inhibition value, U2OS [2]
0.01 µM | 0.979 | 1.03
0.0316 µM | 0.981 | 0.985
0.1 µM | 0.98 | 0.962
0.316 µM | 0.976 | 1.06
1 µM | 0.985 | 1.02
3.16 µM | 0.974 | 0.996
10 µM | 0.975 | 1.01
31.6 µM | 0.974 | 0.83

Details | GRmin
U2OS [5] | 0.339

C#Cc1cccc(Nc2ncnc3cc(OCCOC)c(OCCOC)cc23)c1 [Erlotinib]
Details | fractional viability, U2OS [1] | normalized growth rate inhibition value, U2OS [2]
0.01 µM | 0.973 | 0.935
0.0316 µM | 0.976 | 0.993
0.1 µM | 0.977 | 1.03
0.316 µM | 0.967 | 0.986
1 µM | 0.96 | 1.06
3.16 µM | 0.96 | 0.928
10 µM | 0.913 | 0.636
31.6 µM | 0.697 | 0.545

Details | GRmin | drug GRADE
U2OS [4] | – | 62.1
U2OS [5] | 0.542 | –

CC(=O)Nc1cccc(-n2c(=O)n(C3CC3)c(=O)c3c(Nc4ccc(I)cc4F)n(C)c(=O)c(C)c32)c1 [Trametinib]
Details | fractional viability, U2OS [1] | normalized growth rate inhibition value, U2OS [2]
0.000100578 µM | 0.978 | 0.839
0.000317827 µM | 0.974 | 0.677
0.00100433 µM | 0.965 | 0.696
0.00317369 µM | 0.951 | 0.569
0.0100289 µM | 0.915 | 0.582
0.0316912 µM | 0.732 | 0.319
0.100144 µM | 0.524 | 0.0761
0.316456 µM | 0.442 | 0.0524
1 µM | 0.466 | 0.0402

CO[C@H]1C[C@@H]2CC[C@@H](C)[C@@](O)(O2)C(=O)C(=O)N2CCCC[C@H]2C(=O)O[C@H]([C@H](C)C[C@@H]2CC[C@@H](OCCO)[C@H](OC)C2)CC(=O)[C@H](C)/C=C(\C)[C@@H](O)[C@@H](OC)C(=O)[C@H](C)C[C@H](C)/C=C/C=C/C=C/1C [Everolimus]
Details | fractional viability, U2OS [1] | normalized growth rate inhibition value, U2OS [2]
0.00100578 µM | 0.994 | 0.653
0.00317827 µM | 0.992 | 0.758
0.0100433 µM | 0.991 | 0.721
0.0317369 µM | 0.994 | 0.653
0.100289 µM | 0.993 | 0.738
0.316912 µM | 0.994 | 0.79
1.00144 µM | 0.989 | 0.598
3.16456 µM | 0.99 | 0.524
10 µM | 0.984 | 0.515

Details | GRmin | drug GRADE
U2OS [4] | – | 0.964
U2OS [5] | -0.334 | –

COc1cc2nccc(Oc3ccc(NC(=O)C4(C(=O)Nc5ccc(F)cc5)CC4)cc3)c2cc1OC [Cabozantinib]
Details | GR50 [µM] | drug GRADE
U2OS [3] | 2.79 | –
U2OS [4] | – | 9.76

Details | fractional viability, U2OS [1] | normalized growth rate inhibition value, U2OS [2]
0.00100578 µM | 0.984 | 1.02
0.00317827 µM | 0.986 | 0.963
0.0100433 µM | 0.985 | 1.03
0.0317369 µM | 0.981 | 1.07
0.100289 µM | 0.979 | 0.938
0.316912 µM | 0.977 | 0.954
1.00144 µM | 0.968 | 0.843
3.16456 µM | 0.917 | 0.443
10 µM | 0.647 | -0.338

O=C(c1cc(Cc2n[nH]c(=O)c3ccccc23)ccc1F)N1CCN(C(=O)C2CC2)CC1 [Olaparib]
Details | fractional viability, U2OS [1] | normalized growth rate inhibition value, U2OS [2]
0.00100578 µM | 0.992 | 1.03
0.00317827 µM | 0.988 | 0.94
0.0100433 µM | 0.989 | 1.03
0.0317369 µM | 0.992 | 1.02
0.100289 µM | 0.99 | 0.964
0.316912 µM | 0.989 | 0.956
1.00144 µM | 0.987 | 0.922
3.16456 µM | 0.982 | 0.85
10 µM | 0.96 | 0.511

Details | drug GRADE
U2OS [4] | 6.58

CC1(C)CCC(c2ccc(Cl)cc2)=C(CN2CCN(c3ccc(C(=O)NS(=O)(=O)c4ccc(N[C@H](CCN5CCOCC5)CSc5ccccc5)c(S(=O)(=O)C(F)(F)F)c4)cc3)CC2)C1 [Navitoclax]
Details | fractional viability, U2OS [1] | normalized growth rate inhibition value, U2OS [2]
0.01 µM | 0.98 | 0.981
0.0316 µM | 0.983 | 1.04
0.1 µM | 0.978 | 0.941
0.316 µM | 0.978 | 1.02
1 µM | 0.978 | 0.95
3.16 µM | 0.972 | 0.94
10 µM | 0.947 | 0.841
31.6 µM | 0.887 | 0.891

Details | GRmin
U2OS [5] | 0.866

Cn1nnc2c(C(N)=O)ncn2c1=O [Temozolamide]
Details | fractional viability, U2OS [1] | normalized growth rate inhibition value, U2OS [2]
0.01 µM | 0.982 | 0.992
0.0316 µM | 0.982 | 1.07
0.1 µM | 0.981 | 0.975
0.316 µM | 0.977 | 1.05
1 µM | 0.975 | 0.984
3.16 µM | 0.978 | 0.894
10 µM | 0.98 | 0.954
31.6 µM | 0.975 | 1.02

Details | GRmin
U2OS [5] | 0.955
